Data on 53 compounds can be found in patent US7112586B2, “Substituted diamine derivatives useful as motilin antagonists” (Ortho-McNeil Pharmaceutical, Inc., priority 2000, dated 2006).

For the assay, the target named is T1, Motilin Receptor (Oryctolagus cuniculus, UniProt G1T803).
T1 construct: The muscle tissue was homogenized in 10 volumes of 50 mM Tris-Cl; from tissue; host or cells: rabbit colon smooth muscle, crude membrane homogenate
Kind of assay: Motilin receptor binding, rabbit colon membranes, 125I porcine motilin. On the set-up: Rabbit Colon % Inh / inhibition / % Inh (Rabbit colon): dose or concentration left out as unconfirmed. Conditions: rabbit colon membranes; for inhibition: read-out: Rabbit Colon % Inh; for IC50: read-out: Rabbit Colon IC50; for % Inh (Rabbit colon): 125I porcine motilin binding.

T1 sequence (G1T803 1-400): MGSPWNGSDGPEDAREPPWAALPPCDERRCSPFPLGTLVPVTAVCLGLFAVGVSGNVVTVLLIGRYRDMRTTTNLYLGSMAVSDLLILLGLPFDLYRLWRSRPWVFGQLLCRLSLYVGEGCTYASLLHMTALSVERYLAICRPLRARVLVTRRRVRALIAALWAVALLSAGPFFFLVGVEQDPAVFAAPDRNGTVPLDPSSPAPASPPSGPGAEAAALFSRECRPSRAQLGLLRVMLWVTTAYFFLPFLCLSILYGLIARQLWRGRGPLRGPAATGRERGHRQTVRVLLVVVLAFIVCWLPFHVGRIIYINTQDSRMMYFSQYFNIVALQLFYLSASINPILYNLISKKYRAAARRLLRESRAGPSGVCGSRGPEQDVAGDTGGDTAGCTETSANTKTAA

With `CN1CCCC1CCOc1cccc(N(CC2CCCC(N(Cc3cccc(Cl)c3)C(=O)C(Cl)(Cl)Cl)C2)C(=O)c2ccc(F)cc2)c1` (racemic) [compound 236], the “Rabbit Colon % Inh” value was found to be 53%.

What is called IC50 is the concentration at which inhibition is half-maximal. With `COc1ccc(CCN(Cc2cccc(Cl)c2)C(=O)CCCN(C(=O)c2ccc(F)cc2)c2cccc(OCCN3CCOCC3)c2)cc1` [compound 147], the inhibition was 61% and the IC50 turned out to be 490 nM. Regarding `O=C(c1ccc(F)cc1)N(CC1CCCC(N(Cc2ccc(Cl)cc2)C(=O)C(Cl)(Cl)Cl)C1)c1cccc(OCCN2CCOCC2)c1` (stereo not drawn) [compound 95], the “Rabbit Colon % Inh” value is 51%.

Turning to `Cc1ccc(C(=O)N(CCCC(=O)N(CCc2ccccc2)Cc2ccccc2)c2cccc(OCCN3CCOCC3)c2)cc1` [compound 3], the “Rabbit Colon % Inh” value amounted to 35%. Take `O=C(Nc1ccccc1)N(CC1CCC(N(Cc2ccccc2)C(=O)Cc2ccccc2)CC1)c1cccc(OCCN2CCOCC2)c1` (stereo not drawn) [compound 183]: the “Rabbit Colon % Inh” value is given as 2%. On to `O=C(c1ccc(F)cc1)N(CC1CCCC(N2C(=O)c3ccc(Br)cc3C2=O)C1)c1cccc(OCCN2CCOCC2)c1` (stereo not drawn) [compound 259], for which the “Rabbit Colon % Inh” value is reported as 17%. On to `CN(Cc1ccccc1)C(=O)CCCN(C(=O)Nc1ccccc1)c1cccc(OCCN2CCOCC2)c1` [compound 15], for which the “Rabbit Colon % Inh” value is recorded as 21%. Regarding `O=C(c1ccc(F)cc1)N(CC1CCCC(N(Cc2cccc([N+](=O)[O-])c2)C(=O)C(Cl)(Cl)Cl)C1)c1cccc(OCCN2CCCC2)c1` (stereo not drawn) [compound 211], the inhibition stood at 100% and the IC50 was 14 nM. `Cc1c(OCCN2CCCC2)cccc1N(Cc1ccc(F)cc1)C(=O)CCCC(=O)N(CCc1ccccc1)Cc1cccc(C(=O)O)c1` [compound 215]: the inhibition amounted to 100% and the IC50 stood at 84 nM. As for `O=C(NC1CCCC(CN(C(=O)Nc2ccccc2)c2cccc(OCCN3CCOCC3)c2)C1)C(c1ccccc1)c1ccccc1` (stereo not drawn) [compound 81], the “Rabbit Colon % Inh” value was determined as 56%. For `CCN(Cc1ccccc1)C(=O)CCCCN(C(=O)c1ccc(F)cc1)c1cccc(OCCN2CCOCC2)c1` [compound 14], the “Rabbit Colon % Inh” value is 25%. `O=C(Nc1ccccc1)N(CC1CCCC(N(Cc2cccc(Cl)c2)C(=O)C(c2ccccc2)c2ccccc2)C1)c1cccc(OCCN2CCOCC2)c1` (stereo not drawn) [compound 56]: the “Rabbit Colon % Inh” value was found to be 27%.

Take `O=C(Nc1ccccc1)N(CC1CCCC(N(Cc2ccc(Cl)cc2)C(=O)C(Cl)(Cl)Cl)C1)c1cccc(OCCN2CCOCC2)c1` (stereo not drawn) [compound 63]: the “Rabbit Colon % Inh” value is listed as 55%.

As for `CN(Cc1ccccc1)C(=O)CCCCN(C(=O)Nc1ccccc1)c1cccc(OCCN2CCOCC2)c1` [compound 19], the “Rabbit Colon % Inh” value was found to be 5%. As for `COc1cccc(CC(=O)N(Cc2cccc(Cl)c2)C2CCCC(CN(C(=O)c3ccc(F)cc3)c3cccc(OCCN4CCOCC4)c3)C2)c1` (stereo not drawn) [compound 241], the “Rabbit Colon % Inh” value amounted to 14%. The same measure, in the same setting: for `O=C(c1cccc(CN(C(=O)c2ccc(F)cc2)c2cccc(OCCN3CCOCC3)c2)c1)N(CCc1ccccc1)Cc1ccccc1` [compound 136] the value was 43%. Consider `O=C(c1ccc(F)cc1)N(CC1CCCC(N(Cc2ccccc2)S(=O)(=O)c2ccc3ccccc3c2)C1)c1cccc(OCCN2CCOCC2)c1` (stereo not drawn) [compound 123], for which the “Rabbit Colon % Inh” value came to 8%. Still for that read-out and setting: for `Cc1ccc(C(=O)N(CCCCC(=O)N(C)Cc2ccccc2)c2cccc(OCCN3CCOCC3)c2)cc1` [compound 21] the value was 34%; for `O=C(CCCC(=O)N(Cc1ccc(F)cc1)c1ccc(OCCN2CCCC2)cc1)N(CCc1ccccc1)Cc1ccccc1` [compound 191], 27%; for `O=C(c1ccc(F)cc1)N(CCCC(=O)N1CCc2ccccc2C1c1ccccc1)c1cccc(OCCN2CCOCC2)c1` (stereo not drawn) [compound 148], 19%. As to `O=C(Nc1ccccc1)N(CC1CCCC(N(Cc2ccccn2)C(=O)C(Cl)(Cl)Cl)C1)c1cccc(OCCN2CCOCC2)c1` (stereo not drawn) [compound 68], the inhibition is 73% and the IC50 worked out at 660 nM.

For `O=C(c1ccc(F)cc1)N(CC1CCCC(N(Cc2cccc(Cl)c2)C(=O)C(Cl)(Cl)Cl)C1)c1cccc(OCCN2CCOCC2)c1` (stereo not drawn) [compound 111], the inhibition is 72% and the IC50 is 880 nM. `Cc1ccc2c(c1)C(=O)N(C1CCCC(CN(C(=O)c3ccc(F)cc3)c3cccc(OCCN4CCOCC4)c3)C1)C2=O` (stereo not drawn) [compound 253]: the “Rabbit Colon % Inh” value was 30%. Take `O=C(Nc1ccccc1)N(CC1CCCC(N(Cc2cccc3ccccc23)C(=O)C(Cl)(Cl)Cl)C1)c1cccc(OCCN2CCOCC2)c1` (stereo not drawn) [compound 64]: the “Rabbit Colon % Inh” value is reported as 32%. Turning to `O=C([C@H](Cc1ccccc1)NS(=O)(=O)c1ccc(-c2ccccc2)cc1)N(Cc1ccc(F)cc1)c1cccc(OCCN2CCOCC2)c1` [compound 135], the “Rabbit Colon % Inh” value came to 8%. In the case of `O=C(c1ccc(F)cc1)N(CC1CCCC(N(Cc2cccc(Cl)c2)C(=O)Cc2cccs2)C1)c1cccc(OCCN2CCOCC2)c1` (stereo not drawn) [compound 248], the inhibition was found to be 86% and the IC50 was found to be 760 nM. Consider `O=C(N[C@@H](Cc1ccccc1)C(=O)N(Cc1ccc(F)cc1)c1cccc(OCCN2CCOCC2)c1)C(c1ccccc1)c1ccccc1` [compound 133], for which the “Rabbit Colon % Inh” value is on record as 6%. For the compound `COc1cccc(C(=O)N(Cc2cccc(Cl)c2)C2CCCC(CN(C(=O)Nc3ccccc3)c3cccc(OCCN4CCOCC4)c3)C2)c1` (stereo not drawn) [compound 51], the “Rabbit Colon % Inh” value was 73% and the IC50 stood at 650 nM. Consider `Cc1ccc(S(=O)(=O)N(CCCCC(=O)N(C)Cc2ccccc2)c2cccc(OCCN3CCOCC3)c2)cc1` [compound 20], for which the “Rabbit Colon % Inh” value amounted to 8%. For the compound `CCN(Cc1ccc(C)cc1)C(=O)CCCCN(c1cccc(OCCN2CCOCC2)c1)S(=O)(=O)c1ccc(C)cc1` [compound 35], the “Rabbit Colon % Inh” value was determined as 17%. On to `CC(C)(C)CC(=O)N(Cc1cccc(Cl)c1)C1CCCC(CN(C(=O)c2ccc(F)cc2)c2cccc(OCCN3CCOCC3)c2)C1` (stereo not drawn) [compound 246], for which the “Rabbit Colon % Inh” value was 73%. Consider `O=C(c1ccc(F)cc1)N(CC1CCCC(N(Cc2ccc(Cl)c(Cl)c2)C(=O)C(Cl)(Cl)Cl)C1)c1cccc(OCCN2CCOCC2)c1` (stereo not drawn) [compound 99], for which the inhibition is 62% and the IC50 was 572 nM. For the compound `O=C(NC1CCCC(CN(C(=O)Nc2ccccc2)c2cccc(OCCN3CCOCC3)c2)C1)c1ccc(-c2ccccc2)cc1` (stereo not drawn) [compound 75], the “Rabbit Colon % Inh” value was determined as 19%. For `CCN(Cc1ccc(C)cc1)C(=O)CCCCN(C(=O)c1ccc(C)cc1)c1cccc(OCCN2CCOCC2)c1` [compound 36], the “Rabbit Colon % Inh” value is given as 32%. In the case of `O=C(Nc1ccccc1)N(CC1CCCC(NCc2cc(Cl)cc(Cl)c2)C1)c1cccc(OCCN2CCOCC2)c1` (stereo not drawn) [compound 87], the “% Inh (Rabbit colon)” value was 22%. In the case of `O=C(Nc1ccccc1)N(CC1CCCC(N(Cc2ccccc2)C(=O)C(Cl)(Cl)Cl)C1)c1cccc(OCCN2CCOCC2)c1` (stereo not drawn) [compound 67], the inhibition amounted to 75% and the IC50 came to 957 nM. Turning to `O=C(CCCCN(C(=O)c1ccc(F)cc1)c1cccc(OCCN2CCOCC2)c1)N(CCc1ccccc1)Cc1ccccc1` [compound 7], the “Rabbit Colon % Inh” value was 42%. Consider `CCN(CC)CCOc1ccc(N(Cc2ccc(F)cc2)C(=O)CCCC(=O)N(CCc2ccccc2)Cc2ccccc2)cc1` [compound 195], for which the “Rabbit Colon % Inh” value is given as 62%.

`COc1ccc(CC(=O)N(Cc2cccc(Cl)c2)C2CCCC(CN(C(=O)c3ccc(F)cc3)c3cccc(OCCN4CCOCC4)c3)C2)cc1OC` (stereo not drawn) [compound 245]: the “Rabbit Colon % Inh” value stood at 40%. The same measure, in the same setting: as for `O=C(Nc1ccccc1)N(CC1CCCC(N(Cc2cccc(Cl)c2)C(=O)c2cccc([N+](=O)[O-])c2)C1)c1cccc(OCCN2CCOCC2)c1` (stereo not drawn) [compound 55], the figure is 48%; as for `O=C(CCCN(C(=O)c1ccc(F)cc1)c1cccc(OCCN2CCOCC2)c1)NC(c1ccccc1)c1ccccc1` [compound 143], 0%.

Take `O=C(c1ccc(F)cc1)N(C[C@H]1CCC[C@@H](N(Cc2cccc(Cl)c2)C(=O)C(Cl)(Cl)Cl)C1)c1cccc(OCCN2CCCCC2)c1` [ID 239]: the IC50 is 73 nM. For the compound `CCN(Cc1ccccc1)C(=O)CCCN(C(=O)c1ccc(F)cc1)c1cccc(OCCN2CCOCC2)c1` [compound 11], the “Rabbit Colon % Inh” value worked out at 0%. `CCN(Cc1ccc(C)cc1)C(=O)CCCN(C(=O)Nc1ccccc1)c1cccc(OCCN2CCOCC2)c1` [compound 30]: the “Rabbit Colon % Inh” value is reported as 17%.

As for `CCN(Cc1ccc(C)cc1)C(=O)CCCCN(C(=O)c1ccc(F)cc1)c1cccc(OCCN2CCOCC2)c1` [compound 37], the “Rabbit Colon % Inh” value worked out at 11%. `O=C(Nc1ccccc1)N(CC1CCCC(NCc2cccc3ccccc23)C1)c1cccc(OCCN2CCOCC2)c1` (stereo not drawn) [compound 88]: the “% Inh (Rabbit colon)” value stood at 0%. As for `O=C(c1ccc(F)cc1)N(CC1CCCC(N(Cc2cc(Cl)cc(Cl)c2)C(=O)C(Cl)(Cl)Cl)C1)c1cccc(OCCN2CCOCC2)c1` (stereo not drawn) [compound 98], the inhibition was 75% and the IC50 turned out to be 760 nM. The like results for `O=C(CCCC(=O)N(Cc1ccc(F)cc1)c1cccc(OCCN2CCOCC2)c1)N(CCCc1ccccc1)Cc1ccccc1` [compound 159] were, in that order, 83% and 275 nM. As for `O=C(c1ccc(F)cc1)N(CC1CCCC(N(Cc2cccc(Cl)c2)C(=O)C(Cl)(Cl)Cl)C1)c1cccc(OCCN2CCCCC2)c1` (stereo not drawn) [compound 238], the inhibition was 98% and the IC50 stood at 97 nM.

In the case of `Cc1ccc(S(=O)(=O)N(CCCCC(=O)N(Cc2ccccc2)Cc2ccccc2)c2cccc(OCCN3CCOCC3)c2)cc1` [compound 27], the “Rabbit Colon % Inh” value was 22%. For the compound `Cc1c(OCCN2CCOCC2)cccc1N(Cc1ccc(F)cc1)C(=O)CCCC(=O)N(CCc1ccccc1)Cc1ccccc1` [compound 234], the inhibition was found to be 86% and the IC50 is 218 nM.

With `O=C(CCCN(C(=O)Nc1ccccc1)c1cccc(OCCN2CCOCC2)c1)N(CCc1ccccc1)Cc1ccccc1` [compound 1], the inhibition worked out at 35%. On to `O=C(c1ccc(F)cc1)N(CC1CCCC(N2C(=O)c3c(Cl)ccc(Cl)c3C2=O)C1)c1cccc(OCCN2CCOCC2)c1` (stereo not drawn) [compound 263], for which the “Rabbit Colon % Inh” value came to 11%.
